Legend:
[1] = Peroxynitrite-mediated nitration of GYA peptide; format: biochemical; details: percent of added peroxynitrite
[2] = tested on: isolated hearts; assay: Isolated hearts, ischemia and reperfusion
[3] = reference (8); cited from earlier work
[4] = Oxidation of metalloporphyrins by peroxynitrite, stopped-flow spectroscopy; format: biochemical; details: 37° C., 0.1 M potassium phosphate pH 7.4, pseudo-first order, ± standard error
Procedure: Peroxynitrite (in 10 mM NaOH) was rapidly mixed with the indicated MPs in 0.1 M potassium phosphate, pH 7.4 at 37° C. using a stopped-flow apparatus as described in Methods. […] A final concentration of 40 μM peroxynitrite was added to 8 μM of each of the MPs MnTBAP, MnPPIX, and FePPIX. […] INSET: Apparent rate constants for oxidation of 8 μM MnTBAP are plotted as a function of peroxynitrite concentration to illustrate how the rate constants listed in Table III were determined.
Rates of metal loporphyrin oxidation by peroxynitrite were determined using a Bio Sequential SX-18MV Applied Photophysics stopped-flow spectrofluorometer. Solutions of metalloporphyrins in 0.1 M potassium phosphate buffer, pH 7.4 were placed in one syringe and solutions of peroxynitrite in 10 mM NaOH were placed in a second syringe, both of which were submerged in a water bath at 37° C. Changes in metalloporphyrin absorbance as a function of time were recorded following triggering of syringe firing and solution mixing (instrument dead time=2 msec); a total of 1000 data points were collected over intervals ranging from 50 msec to 3 sec. […] Because the absorbance changes associated with loss of +3 forms were greater, rates of metalloporphyrin oxidation were determined by monitoring the disappearance of Mn(III)TMPyP at 462 nm, Mn(III)TBAP at 468 nm, Mn(III)PPIX at 466 nm, and Fe(III)PPIX at 464 nm. Absorbance changes as a function of time were fitted to the equation describing a first order process. The concentration of peroxynitrite was varied from five-fold to forty-fold greater than the fixed metalloporphyrin concentration in order to obtained pseudo first-order conditions (see Table III). Each concentration was injected 10 times and data were averaged automatically prior to fitting.
Rate constants for stoichiometric metalloporphyrin oxidation by peroxynitrite at 37° C. were determined under pseudo-first order reaction conditions by varying the amount of peroxynitrite added to a fixed concentration of metalloporphyrin (Table III).
In Table III, the rate of peroxynitrite-mediated oxidation of metalloporphyrins at 37° C. was determined. Apparent rate constants were determined by stopped-flow spectroscopy and plotted versus the peroxynitrite concentration (as shown for MnTBAP in FIG. 4 inset) to determine the bimolecular rate constant in M^−1s^−1±standard error. FePPIX was monitored at 387 nm, MnPPIX at 464 nm, and MnTBAP at 470 nm.

In the case of O=C(O)c1ccc(-c2c3nc(c(-c4ccc(C(=O)O)cc4)c4ccc([n-]4)c(-c4ccc(C(=O)O)cc4)c4nc(c(-c5ccc(C(=O)O)cc5)c5ccc2[n-]5)C=C4)C=C3)cc1.[Fe+2] [FeTCPP, Iron (III) meso 5,10,15,20-tetrakis-(4-carboxy-phenyl) porphyrin], the “average efficiency of nitration catalysis” value [1] is reported as 22.7% and the “protection of isolated hearts” value [2] is reported as “protects isolated hearts from the injurious effects of ischemia and reperfusion”.
In the case of C[n+]1ccc(-c2c3nc(c(-c4cc[n+](C)cc4)c4ccc([n-]4)c(-c4cc[n+](C)cc4)c4nc(c(-c5cc[n+](C)cc5)c5ccc2[n-]5)C=C4)C=C3)cc1.[Cl-].[Cl-].[Cl-].[Cl-].[Cl-].[Mn+3] [MnTMPyP, Manganese (III) meso-tetra-(N-methyl-4-pyridyl)-porphine chloride], the “Rate constant for oxidation by peroxynitrite reported previously” value [3] is listed as 1.8e+06 M⁻¹ s⁻¹, the “Rate Constants for Oxidation of MPs by Peroxynitrite” value [4] is listed as 3.6e+06 M⁻¹ s⁻¹ and the “effect of HOCl on the MP” value (50 μM HOCl) is listed as “appeared to destroy the metal-pyrrole center”. For the same compound, the “oxidation by H2O2” value (0.5 mM H2O2, 20 min) was “did not appear to oxidize”.
